US20260324636A1, “COMPOSITION FOR PROVIDING PLANT WITH STRESS RESISTANCE” (KIRIN HOLDINGS KABUSHIKI KAISHA, priority 2022, published 2026)

Assays:
ZAT10 = ZAT10 gene expression by real-time PCR, Example 11; type: in vivo; settings: Arabidopsis thaliana; 0.4 mM, 22° C. for 2 hours; read-out: ZAT10 expression level, increase vs control
Protocol: The materials as used in Example 1 were used.
The medium as used in Example 1 was used.
To the Arabidopsis thaliana plants grown for 7 days in the same manner as in Example 1, 0.4 mM N-acetylglutamic acid or an equivalent amount of sterile water was added, and the plants were incubated at 22° C. for 2 hours. After incubation for 2 hours, the samples were frozen with liquid nitrogen, and RNA was extracted using the RNeasy Plant Mini Kit […].
cDNA that would be necessary as a real-time PCR template was synthesized from the RNA obtained. 1000 ng total RNA was used for each sample, and cDNA was synthesized using the Verso cDNA Synthesis Kit (Thermo Fischer Scientific). The synthesized cDNA was diluted to 5-fold with sterile distilled water and subjected to real-time PCR. For real-time PCR, a reaction solution containing ZAT10 (AGI code: AT1G27730) and ZAT12 (AGI code: AT5G59820) as the target genes, PP2AA3 (AGI code: AT1G13320) as the reference gene, and TB Green Ex Taq II (TakaRa) was prepared. PCR was performed with the use of the LightCycler® 480 System (Roche) with the number of amplification cycles of 50. The primers shown below were used.
Thereafter, the relative expression levels of the target genes upon N-acetylglutamic acid treatment were calculated by the ΔΔCt method using the Cp values obtained by real-time PCR.

ZAT12 = experiment: Histone H4 acetylation level of ZAT12 by chromatin immunoprecipitation and quantitative PCR, Example 14; type: in vivo, Arabidopsis thaliana (Col-0); settings: Arabidopsis thaliana; 0.4 mM in medium, 2 hours after application; read-out: histone H4 acetylation level of ZAT12, increase vs group not subjected to the treatment
Protocol: A wild-type Arabidopsis thaliana strain (accession: Col-0) was used as an experimental material. Seeds were purchased from Inplanta Innovations Inc.
A liquid medium containing a ½ Murashige and Skoog Plant Salt Mixture (Nacalai) and 1 (w/v) % sucrose (FUJIFILM Wako) was used as a growth medium.
Arabidopsis thaliana seeds were sterilized with the use of a Kitchen Haiter® liquid (Kao Corporation) diluted to one-half concentration with distilled water for 3 minutes, washed 3 times with sterile distilled water, and then incubated at 4° C. overnight. The growth medium (100 ml) was prepared in a 300-ml flask, the incubated seeds were seeded therein, the flask was transferred to an incubator (TOMY), and shake culture was then initiated. The incubator was maintained at a temperature of 22° C. for a daily cycle of 16 hours light and 8 hours darkness, and the rotation speed of the shaker was set at 180 rpm.
A stock solution of N-acetylglutamic acid (Tokyo Chemical Industry Co., Ltd.) was added to Arabidopsis thaliana 7 days after seeding to the final concentration of 0 mM and 0.4 mM in the media, followed by incubation for 2 hours. Sample fixation following incubation was performed in accordance with Yamaguchi et al (Arabidopsis Book, Feb. 17, 2014; 12: e0170). […]

## CC(=O)N[C@@H](CCC(=O)O)C(=O)O [N-acetylglutamic acid]
ZAT10
  fold induction at 400 µM: 28
ZAT12
  fold induction at 400 µM: 2.3
